# Experimental data: patent US20040006103A1, “Use of chloroquine, hydroxychloroquine and 4 amino-quinolinic derivatives to obtain a drug for the anti retroviral therapy, active towards HIV sensitive strains and towards HIV strains which are resistant to both nucleosidic and non-nucleosidic reverse transcriptase inhibitors and to proteases …” (VALPHARMA S.A., priority 2002, published 2004)
# Where two headings read alike, the source gives them in different places.
# Legend:
# [1] = test system: HIV clinical isolated, characterised by mutations in the RT gene inducing geno-phenotypic resistance to AZT; test: p24 production susceptibility test (ACTG protocol), Table 1; type: cell-based, HIV-1; settings: for EC50: Human immunodeficiency virus 1, PBMC; for S.I. HCQ: I.C.50/E.C.50; for Fen. HCQ (fold): ratio to HIV-IIIB
# Description: (§1) For the phenotype of the nucleosidic, non-nucleosidic and proteases inhibitors was utilised a method which consider the use of human PBMC and the protocol standardised by the AIDS Clinical Trials Group, after verifying the genotype by sequence analysis.
# (§2) In order to assay in vitro the susceptibility to chloroquine and hydroxychloroquine of the viral strains, it was used the protocol of the ACTG which is characterised by the measure, of the production of antigen p24 in strongly infected cells.
# (§3) The susceptibility of the viral strains to chemotherapics was determined in cell cultures, prepared in 96 wells microplates, using, for the infection, 0.1 MOI.
# (§4) The supernatant of the infected cultures (either in absence or in presence of different concentrations of chemotherapic) were tested for the production of p24 after 7 days, using an ELISA test which is commercially available.
# (§5) The concentrations of chloroquine and hydroxychloroquine tested ranged from 0.5 to 15 uM. At the same time non-infected cells were incubated with concentrations of chloroquine and hydroxychloroquine ranging from 0 to 50 uM to evaluate the toxicity of the compound.
# (§6) After 4 day from the infection, half the cellular medium was replaced with a medium containing the corresponding dilution of chloroquine and hydroxychloroquine. The percentage of inhibition of the HIV replication, induced by chloroquine and hydroxychloroquine, was determined, after 7 day from the infection, comparing the levels of p24 of this cultures and that of the control, infected and not treated with chloroquine and hydroxychloroquine.
# (§7) Therefore, the E.C.50 of chloroquine and hydroxychloroquine expresses the concentration of chemotherapic that inhibits the 50% of production of p24 and the values were calculated using linear and non linear regression analysis (the significativity for the non linear regression was R^2>0.95).
# (§8) In the same experimental conditions and in the same day, but with similar concentrations of chloroquine and hydroxychloroquine, it was evaluated the vitality of the infect cell cultures, and this was expressed as I.C.50.
# (§9) I.C.50 (Inhibitory Concentration) indicates the concentration of the chemotherapic agent inhibiting the vitality of the cell cultures at a rate of 50%, when there is not infection.
# [2] = test system: HIV-1 clinical isolated, characterised by mutations in the RT gene inducing geno-phenotypic resistance to 3TC; test: p24 production susceptibility test (ACTG protocol), Table 3; type: cell-based; settings: for EC50: Human immunodeficiency virus 1, PBMC, read-out: E.C.50 HCQ; for S.I. HCQ / Fen. HCQ (fold): PBMC; for S.I. HCQ: I.C.50/E.C.50; for Fen. HCQ (fold): ratio to HIV-IIIB
# Description: as §1, §2, §3, §4
# At the same time non-infected cells were incubated with concentrations of chloroquine and hydroxychloroquine ranging from 0 to 50 uM to evaluate the toxicity of the compound.
# as §6, §7, §8, §9
# [3] = test system: HIV-1 clinical isolated, characterised by mutations in the RT gene inducing geno-phenotypic resistance to ABC; test: p24 production susceptibility test (ACTG protocol), Table 5; type: cell-based; settings: for EC50: Human immunodeficiency virus 1, PBMC, read-out: E.C.50 HCQ; for S.I. HCQ / Fen. HCQ (fold): PBMC; for S.I. HCQ: I.C.50/E.C.50; for Fen. HCQ (fold): ratio to HIV-IIIB
# Description: as §1, §2, §3, §4, §5, §6, §7, §8, §9
# [4] = test system: HIV-1 clinical isolated, characterised by mutations in the protease gene inducing geno-phenotypic resistance to SQV; test: p24 production susceptibility test (ACTG protocol), Table 8; type: cell-based; settings: for EC50: Human immunodeficiency virus 1, PBMC, read-out: E.C.50 HCQ; for S.I. HCQ / Fen. HCQ (fold): PBMC; for S.I. HCQ: I.C.50/E.C.50; for Fen. HCQ (fold): ratio to HIV-IIIB
# Description: as §1, §2, §3, §4, §5, §6, §7, §8, §9
# [5] = test system: HIV-1 clinical isolated, characterised by mutations on the protease gene inducing geno-phenotypic resistance to NFV; test: p24 production susceptibility test (ACTG protocol), Table 10, PBMC; type: cell-based; settings: for S.I. HCQ: I.C.50/E.C.50; for Fen. HCQ (fold): ratio to HIV-IIIB; for EC50: Human immunodeficiency virus 1, PBMC, read-out: E.C.50 HCQ
# Description: as §1, §2, §3, §4, §5, §6, §7, §8, §9
# [6] = test system: viruses resistant to both reverse transcriptase and protease inhibitors; test: p24 production susceptibility test, summary for resistant viruses; type: cell-based, HIV-1; settings: Human immunodeficiency virus 1, range
# Experimental: as §2, §3
# The supernatant of the infected cultures (either in absence or in presence of different concentrations of chemotherapic) were tested for the production of p24 after 7 days, using an ELISA test which is commercially available. […]
# as §6, §7
# [7] = PBMC, Gen. D67N K70R T215F K219Q
# [8] = PBMC, Gen. D 67 Ns K 70N T215F K219Q
# [9] = PBMC, Gen. M41I M184V L210W R221K T215Y
# [10] = PBMC, Gen. M41L D67N K70RM 184V T215F
# [11] = PBMC, Gen. M41LD 76N K70R T215Y
# [12] = Gen. M4IL E44D D67N M184V R211K T215Y
# [13] = Gen. M41L D67N V118I M184V T215Y
# [14] = Gen. K65R S68G F77L Y115F Q151M M184V
# [15] = Gen. M41L D67N M184V L210W T215Y
compound,measurement,setting,value
"CCN(CCO)CCCC(C)Nc1ccnc2cc(Cl)ccc12 (stereo not shown) [HCQ, hydroxychloroquine]",EC50,"[1]; PBMC, Gen. D67N K70R T215F K219Q, read-out: E:C.50 HCQ",2 µM
same,EC50,"[1]; PBMC, Gen. D 67 Ns K 70N T215F K219Q, read-out: E:C.50 HCQ",2.5 µM
same,EC50,"[1]; PBMC, Gen. K70R T215F K219Q, read-out: E:C.50 HCQ",2 µM
same,EC50,"[1]; PBMC, Gen. M41I M184V L210W R221K T215Y, read-out: E:C.50 HCQ",1 µM
same,EC50,"[1]; PBMC, Gen. M41I T215Y, read-out: E:C.50 HCQ",2.5 µM
same,EC50,"[1]; PBMC, Gen. M41L D67N K70RM 184V T215F, read-out: E:C.50 HCQ",2.5 µM
same,EC50,"[1]; read-out: E:C.50 HCQ (uM), PBMC, Gen. M41LD 76N K70R T215Y",2.8 µM
same,S.I. HCQ,[1]; [7],4
same,Fen. HCQ (fold),[1]; [7],1.1X fold
same,S.I. HCQ,[1]; [8],3.6
same,Fen. HCQ (fold),[1]; [8],1.6X fold
same,S.I. HCQ,"[1]; PBMC, Gen. K70R T215F K219Q",5
same,Fen. HCQ (fold),"[1]; PBMC, Gen. K70R T215F K219Q",1.1X fold
same,S.I. HCQ,[1]; [9],7
same,Fen. HCQ (fold),[1]; [9],0.5X fold
same,S.I. HCQ,"[1]; PBMC, Gen. M41I T215Y",4.5
same,Fen. HCQ (fold),"[1]; PBMC, Gen. M41I T215Y",1.3X fold
same,S.I. HCQ,[1]; [10],3.6
same,Fen. HCQ (fold),[1]; [10],1.3X fold
same,S.I. HCQ,[1]; [11],3.4
same,Fen. HCQ (fold),[1]; [11],1.5X fold
same,EC50,[2]; [12],2500 nM
same,EC50,[2]; [13],3200 nM
same,EC50,[2]; Gen. M184I,2800 nM
same,EC50,[2]; Gen. M184V,3000 nM
same,S.I. HCQ,[2]; [12],3.5
same,Fen. HCQ (fold),[2]; [12],1.5X fold
same,S.I. HCQ,[2]; [13],3.3
same,Fen. HCQ (fold),[2]; [13],1.7X fold
same,S.I. HCQ,[2]; Gen. M184I,3.4
same,Fen. HCQ (fold),[2]; Gen. M184I,1.2X fold
same,S.I. HCQ,[2]; Gen. M184V,3.2
same,Fen. HCQ (fold),[2]; Gen. M184V,1.3X fold
same,EC50,[3]; Gen. K65R L74V M184V,1500 nM
same,EC50,[3]; [14],2200 nM
same,EC50,[3]; Gen. L74V M184F,2200 nM
same,EC50,[3]; Gen. L74V Y115F M184V,2500 nM
same,EC50,[3]; [15],1800 nM
same,S.I. HCQ,[3]; Gen. K65R L74V M184V,6
same,Fen. HCQ (fold),[3]; Gen. K65R L74V M184V,1X fold
same,S.I. HCQ,[3]; [14],4
same,Fen. HCQ (fold),[3]; [14],1.4X fold
same,S.I. HCQ,[3]; Gen. L74V M184F,4
same,Fen. HCQ (fold),[3]; Gen. L74V M184F,1.4X fold
same,S.I. HCQ,[3]; Gen. L74V Y115F M184V,3.6
same,Fen. HCQ (fold),[3]; Gen. L74V Y115F M184V,1.3X fold
same,S.I. HCQ,[3]; [15],5.5
same,Fen. HCQ (fold),[3]; [15],1.2X fold
same,EC50,[4]; Gen. G48V I84V A74V L90M,1500 nM
same,EC50,[4]; Gen. G48V V82A,3000 nM
same,EC50,[4]; Gen. I84V L90M,2800 nM
same,EC50,[4]; Gen. M46I G48V L63P L90M,1800 nM
same,EC50,[4]; Gen. V82A L90M,1800 nM
same,S.I. HCQ,[4]; Gen. G48V I84V A74V L90M,4
same,Fen. HCQ (fold),[4]; Gen. G48V I84V A74V L90M,0.8X fold
same,S.I. HCQ,[4]; Gen. G48V V82A,3
same,Fen. HCQ (fold),[4]; Gen. G48V V82A,1.6X fold
same,S.I. HCQ,[4]; Gen. I84V L90M,3
same,Fen. HCQ (fold),[4]; Gen. I84V L90M,1.5X fold
same,S.I. HCQ,[4]; Gen. M46I G48V L63P L90M,6
same,Fen. HCQ (fold),[4]; Gen. M46I G48V L63P L90M,1X fold
same,S.I. HCQ,[4]; Gen. V82A L90M,5.5
same,Fen. HCQ (fold),[4]; Gen. V82A L90M,1X fold
same,S.I. HCQ,[5]; Gen. D30N A71V,4
same,Fen. HCQ (fold),[5]; Gen. D30N A71V,1.2X fold
same,S.I. HCQ,[5]; Gen. D30N M46V A71V,5.5
same,Fen. HCQ (fold),[5]; Gen. D30N M46V A71V,1X fold
same,S.I. HCQ,[5]; Gen. G48V V92A,3.3
same,Fen. HCQ (fold),[5]; Gen. G48V V92A,1.6X fold
same,S.I. HCQ,[5]; Gen. V82F L90M,3.6
same,Fen. HCQ (fold),[5]; Gen. V82F L90M,1.3X fold
same,EC50,[5]; Gen. D30N A71V,2200 nM
same,EC50,[5]; Gen. D30N M46V A71V,1800 nM
same,EC50,[5]; Gen. G48V V92A,3000 nM
same,EC50,[5]; Gen. V82F L90M,2500 nM
same,EC50,[6],1500 to 3500 nM
